In PubChem BioAssay AID179 (DTP/NCI, 2004):
Values joined by “and” are separate entries in the source; they are usually repeats but may differ in a detail not shown here. Equal values may be shown once. Active and inactive are the calls of the source.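 Rule for the calls: active = compounds giving half or more protection of infected cells from virus-caused growth loss, again on retest; inactive = the rest.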 Where a SMILES comes first, the peptide text is derived from it. The star is where a group is joined. Cbz = O=C(OCc1ccccc1)*

System: CEM cells HIV-1 protection, formazan growth assay
Assay: NCI AIDS Antiviral Assay
Conditions: for IC50: measured here: growth of uninfected CEM cells
Outline: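 CEM (human) cells, HIV-1 infected vs uninfected, 5-point dosing, formazan growth read-out. Retest threshold 50% protection.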

Compound	outcome	EC50	IC50
CN(C)C1=NC2=S(SC(Nc3ccccc3)=N2)S1 (stereo unspecified)	inactive		
COC(=O)/C=C(\C)CCC1SC1(C)C (stereo unspecified)		> 100 µM	> 100 µM
COC1=C(N)C(=O)c2ncccc2C1=O	inactive		
CC1(Cl)CC2OC3(Br)C=CC(C)(O)C2(CC1Br)C3(C)C (stereo unspecified)		> 102 µM	> 102 µM
CC(=O)CC(=O)CCC(=O)Nc1cccc(C(F)(F)F)c1	inactive		
COc1ccc2c(c1)C(N)=C(c1ccccc1OC)C2=O		> 200 µM	120 µM
CCOC(=O)C1(C(=O)OCC)COC(=O)C1CN1Cc2cc3ccccc3nc2C1 (stereo unspecified)		> 427 µM	47.9 µM
CCCCCCCCCC=C(c1cc(Br)c(O)c(C(=O)O)c1)c1cc(Br)c(O)c(C(=O)O)c1		141 µM	191 µM
Cn1c(=O)c2[nH]c(=O)c(=O)[nH]c2n(C)c1=O		> 200 µM	> 200 µM
COC(=O)CC1CN(C(=O)OCc2ccccc2)C(C)(C)O1 (stereo unspecified)		> 200 µM	> 200 µM
O=C1/C(=C\c2cccc(Oc3ccccc3)c2)SC(c2ccccc2)N1c1cc(Cl)ccc1Cl (stereo unspecified)		> 200 µM	9.33 µM
CCCCN(CCCC)c1ccc(/C=C2/C=Cc3ccccc32)cc1		> 11.2 µM	> 11.2 µM
O=C(CN1CCCC1)Nc1ccc2c(c1)C1Oc3ccccc3CC1CO2 (stereo unspecified)	inactive		
CCCCCCCc1ccc(OC2OC(COC(C)=O)C(OC(C)=O)C(OC(C)=O)C2OC(C)=O)cc1 (stereo unspecified)		> 91.2 µM	49 µM and > 85.1 µM
O=C(Cn1c(=O)oc2ccccc21)N(c1ccccc1)c1ccccc1		> 200 µM	> 200 µM
O=C(Nc1ccc(Cl)c(Cl)c1)OCC#CCOC(=O)Nc1ccc(Cl)c(Cl)c1		> 200 µM	8.91 µM
CC1(C)CNC[C@](C)(OCc2ccccc2)N1		> 200 µM	> 200 µM
Cc1cn(C2CC3C(COC(C)(C)N3O)O2)c(=O)[nH]c1=O (stereo unspecified)		7.76 µM	> 200 µM
COc1c(O)cc2oc(-c3ccc(O)cc3)cc(=O)c2c1O		> 148 µM	35.5 µM
C[C@]12CC/C(=N/O)C(O)=C1CC[C@@H]1C2CC[C@]2(C)NC(=O)CCC12 (stereo partly specified)		> 282 µM	132 µM
O=C1[C@H](Cc2ccccc2)C[C@H]2CO[C@H](c3ccccc3)N12		> 200 µM	38.9 µM

Compound	outcome	EC50	IC50
COc1cc(Nc2nc3cc(C(F)(F)F)ccc3nc2C)cc(OC)c1OC		> 60.3 µM	31.6 µM
O=C(Nc1cc(Cl)c(Cl)cc1Cl)C(=O)C(C(=O)c1ccccc1)C1OC(=O)c2ccccc21 (stereo unspecified)	inactive		
CC(=O)N(C(C)=O)c1c(C)cc(-c2ccccc2)oc1=O		> 200 µM	> 200 µM
[N-]=[N+]=NC1=C(C(=O)c2ccccc2)C(=O)c2cccc3cccc1c23		> 100 µM	49 µM
NC(=O)c1cccc(NC=O)c1		> 1510 µM	1290 µM
CC1(C)O[C@H]2[C@H](O)C[C@](O)(CO)C[C@H]2O1	inactive		
CC(C)(CCNc1c2ccccc2nc2cccc([N+](=O)[O-])c12)[N+](C)(C)[O-]		> 0.2 µM	0.12 µM
O=C(O)CCC(NC(=O)c1ccc(Nc2cnc3ccc(C(F)(F)F)cc3n2)cc1)C(=O)O (stereo unspecified)		> 200 µM	> 200 µM
O=c1[nH]cnc2c1ncn2[C@H]1CO[C@@H](CO)[C@@H]1O		> 100 µM	> 100 µM
O=C1/C(=C/c2ccccc2)CCC/C1=C\c1ccccc1		> 200 µM	8.13 µM
Cc1ccccc1Nc1nc(-c2ccccc2)nc(N)c1N=O		> 200 µM	21.9 µM
O=[N+]([O-])c1cccc(-c2nc3ccccc3[nH]2)c1	inactive		
Cc1cc(NS(=O)(=O)c2ccc(NC(=O)c3ccc(Cl)c4c(Nc5ccc(S(=O)(=O)Nc6cc(C)on6)cc5)c5ccccc5nc34)cc2)no1		> 47.9 µM	> 47.9 µM
COc1ccc(NC(=O)/C(=C\N2C(=O)CC(=O)NC2=S)C(C)=O)cc1		> 200 µM	25.7 µM
O=c1c2ccccc2c2nc3ccccc3nc2n1C1CCCCC1	inactive		
COc1ccc(N2C(=O)C3c4[nH]c5cccc(Cl)c5c4C4CCC(C(C)(C)C)CC4C3C2=O)cc1 (stereo unspecified)		> 200 µM	
CN(C)CC(C)(C)/C(=N\Nc1ccccc1)c1ccccc1	inactive		
CCCOc1cnc([C@H]2CCC3[C@@H]4CC=C5C[C@@H](OC(C)=O)CC[C@]5(C)C4CC[C@@]32C)s1 (stereo partly specified)		> 55 µM	> 55 µM
COc1ccc(OC(C(=O)O)c2ccccc2)c2c1CCCC2=O (stereo unspecified)	inactive		
Cc1ccc(-n2cc([Si](C)(C)C)nn2)s1		> 200 µM	123 µM
CSc1nc(NC2OC(COC(C)=O)C(OC(C)=O)C(OC(C)=O)C2OC(C)=O)c2c(n1)OCC2=O (stereo unspecified)		> 67.6 µM	> 67.6 µM

Compound	outcome	EC50	IC50
COC(=O)C(NC(=O)C(C)NC(=O)C1CCCN1C(=O)CNC(=O)C(CO)NC(=O)C(NC(=O)OCc1ccccc1)C(C)O)C(C)O (stereo unspecified) (Cbz-TSGPAT-OMe; configuration not given here)		> 363 µM	> 363 µM
CC1=Nc2ccc([N+](=O)[O-])cc2N=C(C)C1		> 200 µM	> 200 µM and 126 µM
OCCOCCO[P+]1(OCCOCCO)n2c3ccc2C(c2ccccc2)=C2C=CC(=N2)C(c2ccccc2)=c2ccc(n21)=C(c1ccccc1)C1=NC(=C3c2ccccc2)C=C1		> 100 µM	0.0794 µM
CN1CCN(c2ccc(-n3cc(C(=O)O)c(=O)c4cc(F)c(N5CCN(C)CC5)cc43)nc2)CC1		> 200 µM	115 µM
COC1/C=C/OC2(C)Oc3c(C)c(O)c4c(O)c(c(/C=N/NC5CCCCCCCCCCCCCC5)c(O)c4c3C2=O)NC(=O)/C(C)=C\C=C\C(C)C(O)C(C)C(O)C(C)C(OC(C)=O)C1C (stereo unspecified)		> 200 µM	10.5 µM
C/C(CC1SCCCS1)=C(/C)CC1SCCCS1		> 200 µM	> 200 µM
C[C@@H]1C[C@H]2[C@@H]3CCC4=CC(=O)C=C[C@]4(C)[C@@]3(F)[C@@H](O)C[C@]2(C)C1=O	inactive		
CCC(C)C(NC(=O)C(N)CCCN=C(N)N)C(=O)NC(CCC(N)=O)C(=O)NC(CCCN=C(N)N)C(=O)NCC(=O)N1CCCC1C(=O)NCC(=O)NC(CCCN=C(N)N)C(=O)NC(C)C(=O)NC(Cc1ccccc1)C(=O)NC(C(=O)NC(C(=O)NC(C(=O)NCC(=O)NC(CCCCN)C(N)=O)C(C)CC)C(C)OC1OC(CO)C(O)C(O)C1NC(C)=O)C(C)C (stereo unspecified)		> 50.1 µM	> 50.1 µM
Oc1ccc2ccccc2c1Br		> 200 µM	162 µM
O=C(O)CCC(NC(=O)c1ccc(Nc2nc3ccc(C(F)(F)F)cc3nc2C(=O)O)cc1)C(=O)O (stereo unspecified)		> 200 µM	> 200 µM
COc1ccc(C2CC(=O)c3ccccc3O2)cc1OC (stereo unspecified)		> 200 µM	40.7 µM
COc1cc(/C=C/C(=O)OC[C@]23O[C@H]2[C@@H](OC2OC(C)C(O)C(O)C2O)C2C=CO[C@@H](OC4OC(CO)C(O)C(O)C4O)C23)ccc1O (stereo partly specified)		> 200 µM	> 200 µM
NNC(=O)N/N=C1\C(=O)N(c2nccs2)C(=O)C(=O)C1c1nc2ccccc2s1 (stereo unspecified)		> 2.45 µM	> 2.45 µM
Oc1ccc(C[C@@H]2CN[C@H](Cc3ccc(O)c(Br)c3)CN2)cc1		> 200 µM	> 200 µM
CC(C)(O)S(=O)(=O)O		> 200 µM	> 200 µM
O=NN1C(c2ccccc2)CCCC1c1ccccc1 (stereo unspecified)		> 51.3 µM	> 51.3 µM
O=C1NC(N2CCCC(CO)C2)=N/C1=C\c1cccs1 (stereo unspecified)		> 200 µM	> 200 µM
CN(C)CC1CCCCCCCCCC(CN(C)C)C1=O (stereo unspecified)		> 5.89 µM	> 5.89 µM
CC(C)(C)NC(=S)N/N=C/c1ccccn1		> 0.2 µM	0.0288 µM
O=C1C2C3SC(c4cc5ccccc5cc43)C2C(=O)N1c1ccccc1 (stereo unspecified)	inactive		
NS(=O)(=O)c1ccccc1C(=O)N/N=C(\c1nc2ccc([N+](=O)[O-])cc2[nH]c1=O)C(O)c1ccc([N+](=O)[O-])cc1 (stereo unspecified)		> 120 µM	107 µM

Compound	outcome	EC50	IC50
CC(NCCNC(C)c1cccnc1)c1cccnc1 (stereo unspecified)		> 200 µM	> 200 µM
CCN1C(=O)CS/C1=N/NC(=O)C(O)(c1ccccc1)C1C=CC=CC1 (stereo unspecified)		> 200 µM	> 200 µM
CCC(C#N)NCc1cccc(CNC(C#N)CC)c1 (stereo unspecified)		> 200 µM	> 200 µM
S=C1OC2C3C4CC5C3C(O1)C1C5C4C21 (stereo unspecified)	inactive		
COC(=O)C(CCC(=O)O)N1C(=O)c2ccccc2C1=O (stereo unspecified)		> 200 µM	> 200 µM
Nc1ccc2[nH]c(C(=O)N3CC(CCl)c4c3cc(N)c3ccccc43)cc2c1 (stereo unspecified)		> 0.2 µM	0.00417 µM
CCOC(=O)C1C(c2ccc(Br)cc2)N(Cc2ccccc2)C(c2ccc(Br)cc2)C(C(=O)OC)S1(=O)=O (stereo unspecified)		> 2.19 µM	> 2.19 µM
C=C1OC(=O)[C@]2([C@@H](/C=C/C)C=CC(=O)[C@H]2O)[C@@H]1O		> 200 µM	> 200 µM
O=C(c1ccccc1)N1CCN(C(=S)N(C(=O)c2ccccc2)c2ccccc2)C1=S		> 200 µM	3.72 µM
O=C1Nc2nc(=O)nc3[nH]c(=O)nc(n23)N1		> 251 µM	> 251 µM
Cc1cc(NS(=O)(=O)c2ccc(NC(NC(=O)OC(C)C)(C(F)(F)F)C(F)(F)F)cc2)nc(C)n1		> 200 µM	> 200 µM
CC(=O)SCC1OC(n2cc(C)c(=O)[nH]c2=O)C/C1=N\O (stereo unspecified)		> 200 µM	> 200 µM
C[C@@H]1C[C@@]2(O)[C@@H]3C[C@H](F)C4=CC(=O)CC[C@]4(C)[C@H]3[C@@H](O)C[C@]2(C)[C@@]1(O)C(=O)CO		> 200 µM	178 µM
COC(=O)C1=CCC2c3[nH]c4ccccc4c3CCN2C1 (stereo unspecified)		> 91.2 µM	> 91.2 µM
CCCCN(CCCC)C1=Nc2ccccc2-n2c(nnc2C(=O)OCC)C1		> 200 µM	41.7 µM
O=C1CC2C=CC1C2CO (stereo unspecified)	inactive		
CC(C)c1ccc(C(c2c(O)c3ccccc3oc2=O)c2c(O)c3ccccc3oc2=O)cc1		> 200 µM	30.2 µM
Cc1ccc(/C=C/C(=O)c2sc(-n3nc(-c4ccccc4)cc3-c3ccccc3)nc2C)cc1		> 11.2 µM	> 11.2 µM
O=c1[nH]cc(SSc2c[nH]c(=O)[nH]c2=O)c(=O)[nH]1		138 µM	> 200 µM
Cc1ccc(S(=O)(=O)NC(CCC(=O)NN)C(=O)NN)cc1 (stereo unspecified)		> 200 µM	> 200 µM
